Laboratory results taken from patent publication US8658668B2, “PI3 kinase/mTOR dual inhibitor” (Eli Lilly and Company, priority 2011, dated 2014).

How the values were obtained:
Type in all cases: cell-based
[1] = tested on: AKT1(pS473); assay: AlphaScreen SureFire p-AKT (Ser473) in U87MG cells; conditions: Homo sapiens, U-87 MG, 1 h, n = 4, read-out: AKT1(pS473) Absolute IC50
Experimental: This homogeneous assay format uses immuno-sandwich capture of the phosphorylated analyte and then detection with antibody-coated Alphascreen beads to generate an amplified signal.
Maintain U87MG cells in U87MG growth medium consisting of DMEM (GIBCO 11965-092) supplemented with 10% fetal bovine serum (FBS, GIBCO, 10091-141), 1% nonessential amino acids (GIBCO, 11140-050) and 1% sodium pyruvate (GIBCO, 11360-070). Harvest cells using standard cell culture procedures and then count using Vi-Cell. Plate 100 μL of U87MG cells in growth medium (50,000 cells/well) into Costar #3596 96 well plates and incubate overnight at 37° C., 5% CO2.
Incubate for one h at 37° C., then remove the medium and add 50 μL of 1× SureFire Lysis Buffer (TGR Biosciences SureFire® Kit component) to each well and incubate at room temperature for 10 min with gentle shaking Transfer 6 μL lysate and 10 μL reaction mixture (60 parts reaction buffer/10 parts activation buffer/1 part each of donor and acceptor beads, Perkin Elmer, 6760617R) to a 384 well proxiplate (Perkin Elmer, 6006280) for the p-p70S6 kinase (Thr389) and p-AKT(Ser473) assays. Seal the plate and incubate at RT for 4 h. […] Read the plates on a Perkin Elmer EnVision equipped with a TurboModule using standard AlphaScreen® settings (Ex680 nm and Em520-620 nm). […]

[2] = tested on: CXF 1103 human tumor xenograft cells; assay: Oncotest tumor clonogenic assay, CXF 1103; conditions: CXF1103, colony formation, Colon CXF 1103, adeno carcinoma, pd, read-out: Absolute IC50
[3] = tested on: CXF 243 human tumor xenograft cells; assay: Oncotest tumor clonogenic assay, CXF 243; conditions: colony formation, Colon CXF 243, adeno carcinoma, pd, read-out: Absolute IC50
[4] = tested on: CXF 975 human tumor xenograft cells; assay: Oncotest tumor clonogenic assay, CXF 975; conditions: colony formation, Colon CXF 975, adeno carcinoma, md, read-out: Absolute IC50
[5] = tested on: LXFA 629 human tumor xenograft cells; assay: Oncotest tumor clonogenic assay, LXFA 629; conditions: colony formation, NSCLC LXFA 629, adeno carcinoma, pd, read-out: Absolute IC50
[6] = tested on: LXFE 1422 human tumor xenograft cells; assay: Oncotest tumor clonogenic assay, LXFE 1422; conditions: colony formation, NSCLC LXFE 1422, squamous cell carcinoma, ud, read-out: Absolute IC50
[7] = tested on: LXFL 430 human tumor xenograft cells; assay: Oncotest tumor clonogenic assay, LXFL 430; conditions: colony formation, NSCLC LXFL 430, large cell lung carcinoma, pd, read-out: Absolute IC50
[8] = tested on: MAXF 1322 human tumor xenograft cells; assay: Oncotest tumor clonogenic assay, MAXF 1322; conditions: colony formation, Mammary MAXF 1322, pap. adeno carcinoma, pd, read-out: Absolute IC50
[9] = tested on: MAXF 583 human tumor xenograft cells; assay: Oncotest tumor clonogenic assay, MAXF 583; conditions: colony formation, Mammary MAXF 583, ductual adeno carcinoma, md, read-out: Absolute IC50
[10] = tested on: PXF 1752 human tumor xenograft cells; assay: Oncotest tumor clonogenic assay, PXF 1752; conditions: colony formation, Pleuramesothelioma PXF 1752, pleuramesothelioma, read-out: Absolute IC50

CO[C@@H](C)Cn1c(=O)n(C)c2cnc3ccc(-c4cncc(C(C)(C)O)c4)cc3c21 [Example 1, 8-[5-(1-Hydroxy-1-methylethyl)pyridin-3-yl]-1-[(2S)-2-methoxypropyl]-3-methyl-1,3-dihydro-2H-imidazo[4,5-c]quinolin-2-one]
IC50 [1]: 94.2 nM
IC50 [2]: > 200 nM
IC50 [3]: 237 nM
IC50 [4]: 142 nM
IC50 [5]: 26 nM
IC50 [6]: 231 nM
IC50 [7]: 56 nM
IC50 [8]: 3 nM
IC50 [9]: 88 nM
IC50 [10]: 32 nM
